Here are results for twelve compounds from patent US5728829A, “Process of preparing benzodiazepine compounds useful as antagonists of CCK or of gastrine” (Ferring-Research Limited, priority 1993, dated 1998).

Where two headings read alike, the source gives them in different places.

Usually IC50 stands for the concentration that gives 50% inhibition. By ED50 is commonly meant the dose at which the effect has come halfway, by size or by number of responders.

The target of one assay is T1, CCK-A receptor (Rattus norvegicus, UniProt P30551).
T1 construct: The pancreas of an SD rat was homogenized; from tissue; host or cells: SD rat pancreas membranes
T1 sequence (P30551 1-444): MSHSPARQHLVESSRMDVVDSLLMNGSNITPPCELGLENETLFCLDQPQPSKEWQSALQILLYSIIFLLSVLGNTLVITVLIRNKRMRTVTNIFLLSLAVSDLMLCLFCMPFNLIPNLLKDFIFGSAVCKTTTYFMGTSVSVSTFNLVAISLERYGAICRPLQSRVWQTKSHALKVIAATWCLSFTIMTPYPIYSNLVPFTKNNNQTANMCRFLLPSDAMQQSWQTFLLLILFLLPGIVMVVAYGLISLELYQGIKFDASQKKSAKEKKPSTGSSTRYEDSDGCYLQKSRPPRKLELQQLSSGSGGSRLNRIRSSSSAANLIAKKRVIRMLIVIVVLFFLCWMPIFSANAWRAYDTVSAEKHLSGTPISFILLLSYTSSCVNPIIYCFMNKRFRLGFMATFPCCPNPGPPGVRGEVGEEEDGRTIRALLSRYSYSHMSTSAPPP
Description: Selectivity for the CCK-B receptor by comparison with binding to the CCK-A receptor in rats ([3H]L-364,718, pancreas membranes). The arrangement: species or system SD rat. The following applies: table 2; for A/B Ratio: IC50 (CCK-A)/IC50 (CCK-B): higher value = better CCK-B selectivity; for IC50: rat pancreas membranes, [3H]L-364,718, 37 °C, 30 min, read-out: Receptor binding affinity IC50, CCK-A. As for the experimental part: Determination of selectivity for the CCK-B receptor by comparison with binding to the CCK-A receptor in rats
The pancreas of an SD rat was homogenized in a 20-fold volume of 50 mM Tris-HCl buffer (pH 7.7) by the use of a Polytrone-type homogenizer, the homogenate was twice centrifuged for 10 minutes at 50000 G by the use of an ultra-centrifuge, the precipitate thus obtained was suspended in a 40-fold volume of 50 mM Tris-HCl buffer (containing 0.2% BSA, 5 mM MgCl2, 0.1 mg/ml bacitracin and 5 mM DTF; pH 7.7), and the suspension was stored at -80° C. until the membrane preparations were required.
The membrane preparations were then warmed to room temperature, diluted 1:10 with the buffer and incubated at 37° C. for 30 minutes in the presence of [^3 H]L-364,718 and the test compound then separated by suction filtration. Non-specific binding was determined in the presence of 1 μM L-364,718.
A high affinity for the CCK-A receptor in a CCK-B/gastrin antagonist is thought to be undesirable as it may lead to side-effects such as cholestasis and gall stone formation during therapy. Therefore it is preferable for the therapeutic agent to be selective for the CCK-B receptor. This selectivity is expressed by the ratio IC50 (CCK-A)/IC50 (CCK-B); the higher the value of this ratio the better is the selectivity.

The test system of assay [1] is pentagastrin-stimulated gastric acid secretion. The experiment in a line: Measurement of inhibition of pentagastrin-stimulated gastric acid secretion in rat. The assay is classed as in vivo. The following applies: intravenous; for % Inhibition (maximum inhibition of gastric acid secretion): at 0.1 μmol/kg, mean for 3-5 animals; for ED50: read-out: ED50 (dose reducing secreted gastric acid to 50% of the maximum level), table 3, "Relative ED50 values", anaesthetised rat, pentagastrin 15 μg/Kg/hr. The source says:
Measurement of inhibition of pentagastrin-stimulated gastric acid secreation in rat
A cannula was inserted into the trachea of a rat anaesthetised with urethane (intraperitoneally administered, 1.25 g/Kg), its abdominal wall was incised to expose the gastric and duodenal portions, and a polyethylene cannula was set in the anterior stomach after ligation of the cardia. The duodenum was then subjected to slight section, a polyethylene cannnula was inserted from the incised portion toward the stomach, and the pylorus was ligated to fix the cannula.
Physiological saline (with pH adjusted to 7.0) was perfused from the anterior stomach toward the pylorus at a rate of 3 ml/min, and the gastric-acid secreation was measured by continuous titration of the perfusate by the use of a pH-stat (AUT-201; product of Toa Electronics, Ltd.). The continuous titration was carried out by using 25 mM NaOH solution until the pH reached 7.0, and the result was expressed as the amount of gastric acid secreted for every 10 minutes (μEq /10 min.). Pentagastrin was intravenously administered at a rate of 15 μg/Kg/hr.
The secretion of gastric acid increased upon administration of pentagastrin, reaching the maximum level after 60 minutes and stably maintaining this level after that.

The target in another assay is T2, CCK-B receptor (Rattus norvegicus, UniProt P30553).
T2 construct: the whole brain was immediately excised from each of the rats and homogenized; from tissue; host or cells: SD rat whole brain membranes
T2 sequence (P30553 1-452): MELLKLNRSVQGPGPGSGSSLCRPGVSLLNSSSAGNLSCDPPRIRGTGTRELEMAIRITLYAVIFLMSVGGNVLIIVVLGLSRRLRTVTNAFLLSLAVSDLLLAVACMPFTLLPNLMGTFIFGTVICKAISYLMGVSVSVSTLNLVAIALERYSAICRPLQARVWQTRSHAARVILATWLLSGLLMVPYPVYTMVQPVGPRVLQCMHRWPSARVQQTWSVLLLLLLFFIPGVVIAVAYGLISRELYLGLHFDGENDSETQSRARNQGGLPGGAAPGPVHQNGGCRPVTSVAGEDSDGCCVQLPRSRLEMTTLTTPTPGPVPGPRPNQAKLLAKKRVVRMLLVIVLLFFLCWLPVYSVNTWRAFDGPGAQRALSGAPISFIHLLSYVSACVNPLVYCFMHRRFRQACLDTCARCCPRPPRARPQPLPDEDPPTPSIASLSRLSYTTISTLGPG
The experiment in a line: Measurement of binding affinity for CCK-B receptors ([125I]BH-CCK-8, rat brain membranes). Details: species or system SD rat.

The mark [2] stands for this setting: table 1, rat brain membranes, [125I]BH-CCK-8, 25 °C, 120 min, read-out: IC50 (CCK-B receptor binding).
Where [3] appears, read: table 2, rat brain membranes, [125I]BH-CCK-8, read-out: Receptor binding affinity IC50, CCK-B.

Consider `Cc1cccc(NC(=O)NC2N=C(c3nccn3C)c3ccccc3N(CC(=O)C(C)(C)C)C2=O)c1` (racemic) [Example 1, N-((3RS)-1-tert-Butylcarbonylmethyl-2,3-dihydro-2-oxo-5-(2-(1-methyl)imidazolyl)-1H-1,4-benzodiazepin-3-yl)-N'-(3-methylphenyl)urea], for which, on CCK-A receptor, the “A/B Ratio: IC50 (CCK-A)/IC50 (CCK-B)” value worked out at 187. Further, in assay [1], the “% Inhibition (maximum inhibition of gastric acid secretion)” value (shortened to “% Inhibition”) came out at 48.9%.

The compound `CN(C)c1cccc(NC(=O)NC2N=C(c3nccn3C)c3ccccc3N(CC(=O)C(C)(C)C)C2=O)c1` (racemic) [Example 2, N-((3RS)-1-tert-Butylcarbonylmethyl-2,3-dihydro-2-oxo-5-(2-(1-methyl)imidazolyl)-1H-1,4-benzodiazepin-3-yl)-N'-(3-dimethylaminophenyl)urea] returned a concentration for half-maximal inhibition (IC50) at CCK-B receptor of 2.08 nM. Besides, on CCK-A receptor, the “A/B Ratio: IC50 (CCK-A)/IC50 (CCK-B)” value amounted to 238 and the half-inhibitory concentration (IC50) is 495 nM. The “% Inhibition” value in assay [1] came out at 47.4%.

On CCK-B receptor, `Cc1cccc(NC(=O)NC2N=C(c3nccs3)c3ccccc3N(CC(=O)C(C)(C)C)C2=O)c1` (racemic) [Example 3, N-((3RS)-1-tert-Butylcarbonylmethyl-2,3-dihydro-2-oxo-5-(2-thiazolyl)-1H-1,4-benzodiazepin-3-yl)-N'-(3-methylphenyl)urea] yielded an IC50 of 0.8 nM. In addition, at CCK-A receptor, the “A/B Ratio: IC50 (CCK-A)/IC50 (CCK-B)” value came to 540 and the half-inhibitory concentration (IC50) amounted to 433 nM. In addition, the “% Inhibition” value in assay [1] came out at 57.6%.

`CN(C)c1cccc(NC(=O)NC2N=C(c3nccs3)c3ccccc3N(CC(=O)C(C)(C)C)C2=O)c1` (racemic) [Example 4, N-((3RS)-1-tert-Butylcarbonylmethyl-2,3-dihydro-2-oxo-5-(2-thiazolyl)-1H-1,4-benzodiazepin-3-yl)-N'-(3-dimethylaminophenyl)urea]: at CCK-B receptor, the IC50 is 0.63 nM. At CCK-A receptor, the “A/B Ratio: IC50 (CCK-A)/IC50 (CCK-B)” value was 700 and the half-inhibitory concentration (IC50) is 441 nM. Besides, in assay [1], the “% Inhibition” value is 55.2%.

Regarding `Cc1cccc(NC(=O)NC2N=C(c3cnccn3)c3ccccc3N(CC(=O)C(C)(C)C)C2=O)c1` (racemic) [Example 5, N-((3RS)-1-tert-Butylcarbonylmethyl-2,3-dihydro-2-oxo-5-(2-pyrazinyl)-1H-1,4-benzodiazepin-3-yl)-N'-(3-methylphenyl)urea], the “% Inhibition” value in assay [1] was determined as 55.4%.

In the case of `CN(C)c1cccc(NC(=O)NC2N=C(c3cnccn3)c3ccccc3N(CC(=O)C(C)(C)C)C2=O)c1` (racemic) [Example 6, N-((3RS)-1-tert-Butylcarbonylmethyl-2,3-dihydro-2-oxo-5-(2-pyrazinyl)-1H-1,4-benzodiazepin-3-yl)-N'-(3-dimethylaminophenyl)urea], the IC50 on CCK-B receptor was found to be 0.22 nM. The “% Inhibition” value in assay [1] turned out to be 61.9%.

For `CN(C)c1cccc(NC(=O)NC2N=C(c3ncc[nH]3)c3ccccc3N(CC(=O)C(C)(C)C)C2=O)c1` (racemic) [Example 8B, N-((3RS)-1-tert-Butylcarbonylmethyl-2,3-dihydro-5-(2-imidazolyl)-2-oxo-1H-1,4-benzodiazepin-3-yl)-N'-(3-dimethylaminophenyl)urea], the IC50 on CCK-B receptor came out at 55.3 nM.

For `CNc1cccc(NC(=O)NC2N=C(c3ccccn3)c3ccccc3N(CC(=O)C(C)(C)C)C2=O)c1` (racemic) [Example 26, N-((3RS)-1-tert-Butylcarbonylmethyl-2,3-dihydro-2-oxo-5-(2-pyridyl)-1H-1,4-benzodiazepin-3-yl)-N'-(3-(methylamino)phenyl)urea], at CCK-B receptor (setting [2]), the IC50 was 1.4 nM.

Regarding `CN(C)c1cccc(NC(=O)N[C@@H]2N=C(c3ccccn3)c3ccccc3N(CC(=O)C(C)(C)C)C2=O)c1` [Example 22, N-((3R)-1-tert-Butylcarbonylmethyl-2,3-dihydro-2-oxo-5-(2-pyridyl)-1H-1,4-benzodiazepin-3-yl)-N'-((3-dimethylamino)phenyl)urea], the half-inhibitory concentration (IC50) on CCK-B receptor (setting [2]) stood at 0.2 nM; on CCK-B receptor (setting [3]), 0.2 nM; on CCK-A receptor, 113 nM. For the same compound, the “A/B Ratio: IC50 (CCK-A)/IC50 (CCK-B)” value at CCK-A receptor was determined as 565. In addition, the 50% effective dose (ED50) in assay [1] amounted to 0.011 µmol/kg.

On to `Cc1cccc(NC(=O)N[C@@H]2N=C(c3ccccn3)c3ccccc3N(CC(=O)C(C)(C)C)C2=O)c1` [Example 42], for which the half-maximal inhibitory concentration (IC50) at CCK-B receptor (setting [2]) came to 0.44 nM. In assay [1], the ED50 stood at 0.016 µmol/kg.

Consider `CN(C(=O)OC(C)(C)C)c1cccc(C(=O)O)c1` [Example 50, 3-(N-tert-Butoxylcarbonyl-N-methylamino)benzoic acid], for which the IC50 on CCK-B receptor (setting [2]) was 0.88 nM.

Consider `CNc1cccc(NC(=O)N[C@@H]2N=C(c3ccccn3)c3ccccc3N(CC(=O)C(C)(C)C)C2=O)c1` [Example 52, N(-((3R)-1-tert-Butylcarbonylmethyl-2,3-dihydro-2-oxo-5-(2-pyridyl)-1H-1,4-benzodiazepin-3-yl)-N'-3-methylaminophenyl)urea], for which the results for the IC50 on CCK-B receptor (setting [3]) and on CCK-A receptor were 0.1 nM and 502 nM, respectively. Besides, the “A/B Ratio: IC50 (CCK-A)/IC50 (CCK-B)” value on CCK-A receptor was 5020.
